Tested on: atrial fibrillation duration from 3 hours to 45 days
Assay: Atrial Arrhythmia Conversion Trial 1, Phase III (Example 6)
Assay type: in vivo, human
Conditions: for median time to conversion: responders
Protocol: This study was conducted to assess the efficacy and safety of COMPOUND A in the conversion of atrial fibrillation to sinus rhythm in humans. The study was a randomized, double-blind, placebo-controlled Phase III study.
Patients were randomized in a 2:1 ratio (COMPOUND A:placebo) and stratified by atrial fibrillation duration. The entire group of patients (pts) had atrial fibrillation duration from 3 hours to 45 days. One subgroup had atrial fibrillation duration from 3 hours to 7 days. Another subgroup had atrial fibrillation duration from 8 days to 45 days.
The primary endpoint of the study was the proportion of patients with atrial fibrillation duration of 3 hours to 7 days who had treatment-induced conversion of atrial fibrillation to sinus rhythm with 90 minutes. Secondary endpoints include the time-to-conversion of atrial fibrillation to sinus rhythm in patients with atrial fibrillation of 3 hours to 7 days and the proportion of patients with termination of atrial fibrillation within 90 minutes in the subgroup of patients with 8 days to 45 days of atrial fibrillation duration and in the entire group of patients with 3 hours to 45 days of atrial fibrillation duration.
Dosing was as follows: Placebo or 3.0 mg/kg of COMPOUND A was administered by infusion over a 10 minute period, followed by a 15-minute observation period. If atrial fibrillation was not terminated, placebo or 2.0 mg/kg of COMPOUND A was adminstered by infusion over a 10 minute period.
The patient population was randomized (n=[…]). […] There were 220 patients in the subgroup having 3 hours to 7 days atrial fibrillation. Of these 220 patients, 75 received placebo and 145 received COMPOUND A. There were 116 patients in the subgroup having 8 days to 45 days atrial fibrillation. Of these 116 patients, 40 received placebo and 76 received COMPOUND A.

[1] = 30-day follow-up period after dosing, n = 221
[2] = 24 hour period post-dosing, holter, n = 221
[3] = 24 hour time period following dosing, n = 221
[4] = non-responders with attempted cardioversion

For `COc1ccc(CCO[C@@H]2CCCC[C@H]2N2CC[C@@H](O)C2)cc1OC.Cl` [COMPOUND A, (1R,2R)-2-[(3R)-hydroxypyrrolidinyl]-1-(3,4-dimethoxyphenethoxy)cyclohexane monohydrochloride], the “serious adverse events: Cardiac disorders (%)” value [1] was 10.0%, the “serious adverse events: Cardiac disorders (number)” value [1] was 22 and the “serious adverse events: Infections and infestations (%)” value [1] was 1.4%. For the same compound, the “serious adverse events: Infections and infestations (number)” value [1] was 3, the “serious adverse events: Nervous system disorders (%)” value [1] was 0.0% and the “serious adverse events: Nervous system disorders (number)” value [1] was 0. For the same compound, the “serious adverse events: Respiratory, thoracic and mediastinal disorders (%)” value [1] was 1.8%, the “serious adverse events: Respiratory, thoracic and mediastinal disorders (number)” value [1] was 4 and the “serious adverse events: Total (%)” value [1] was 13.1%. For the same compound, the “serious adverse events: Total (number)” value [1] was 29, the “serious adverse events: Vascular disorders (%)” value [1] was 1.4% and the “serious adverse events: Vascular disorders (number)” value [1] was 3. The “Monomorphic sustained ventricular tachycardia (%)” value [2] was 0.0%, the “Monomorphic sustained ventricular tachycardia (number)” value [2] was 0 and the “Monomorphic unsustained aberrant condition (%)” value [2] was 1.4%. The “Monomorphic unsustained aberrant condition (number)” value [2] was 3, the “Monomorphic unsustained ventricular tachycardia (%)” value [2] was 0.9% and the “Monomorphic unsustained ventricular tachycardia (number)” value [2] was 2. For the same compound, the “Polymorphic sustained ventricular tachycardia (%)” value [2] was 0.0%, the “Polymorphic sustained ventricular tachycardia (number)” value [2] was 0 and the “Polymorphic unsustained aberrant condition (%)” value [2] was 0.0%. For the same compound, the “Polymorphic unsustained aberrant condition (number)” value [2] was 0, the “Polymorphic unsustained ventricular tachycardia (%)” value [2] was 0.0% and the “Polymorphic unsustained ventricular tachycardia (number)” value [2] was 0. The “Torsades de Pointes (%)” value [2] was 0.0%, the “Torsades de Pointes (number)” value [2] was 0 and the “Ventricular Rhythm >=5 beats: Total (%)” value [2] was 2.3%. The “Ventricular Rhythm >=5 beats: Total (number)” value [2] was 5, the “Ventricular escape rhythm (%)” value [2] was 0.0% and the “Ventricular escape rhythm (number)” value [2] was 0. The “treatment-emergent adverse event: Atrial fibrillation (%)” value [3] was 4%, the “treatment-emergent adverse event: Atrial fibrillation (number)” value [3] was 8 and the “treatment-emergent adverse event: Cough (%)” value [3] was 5%. The “treatment-emergent adverse event: Cough (number)” value [3] was 11, the “treatment-emergent adverse event: Dysgeusia (%)” value [3] was 30% and the “treatment-emergent adverse event: Dysgeusia (number)” value [3] was 66. For the same compound, the “treatment-emergent adverse event: Hypotension (%)” value [3] was 6%, the “treatment-emergent adverse event: Hypotension (number)” value [3] was 14 and the “treatment-emergent adverse event: Nausea (%)” value [3] was 9%. The “treatment-emergent adverse event: Nausea (number)” value [3] was 20, the “treatment-emergent adverse event: Paraesthesia (%)” value [3] was 11% and the “treatment-emergent adverse event: Paraesthesia (number)” value [3] was 24. The “treatment-emergent adverse event: Pruritus (%)” value [3] was 6%, the “treatment-emergent adverse event: Pruritus (number)” value [3] was 13 and the “treatment-emergent adverse event: Sneezing (%)” value [3] was 16%. The “treatment-emergent adverse event: Sneezing (number)” value [3] was 36, the “responders converted after the first dosing” value (both the short duration subgroup and the entire group) was 76% and the “responders relapsed into atrial fibrillation in the first 24 hours post-dosing” value (in vivo) was “one”. For the same compound, the “Electrical cardioversion was attempted (%)” value (n = 221) was 43%, the “Electrical cardioversion was attempted (number)” value (n = 221) was 96 and the “Successfully converted by electrical cardioversion (%)” value [4] was 85%. The “Successfully converted by electrical cardioversion (number)” value [4] was 82, the “median time to conversion” value (entire group (3 hrs-45 days atrial fibrillation)) was 11.5 min and the “median time to conversion” value (short duration subgroup (3 hrs-7 days atrial fibrillation)) was 11 min.

Reference: patent US8263638B2, “Dosing regimens for ion channel modulating compounds” (priority 2004, dated 2012)
